Assay [1] concerns the target T1, neurotensin receptor 1 (NTR1) (Homo sapiens, UniProt P30989). The assay is described as follows: […]-NT radioligand competitive displacement in NTR1-U2OS membranes. In kind it is binding.
Assay [2] deals with T1, neurotensin receptor 1 (NTR1). Description: […]-NT radioligand binding to NTR1-U2OS membranes.

Structures are written as SMILES.

T1 sequence (P30989 whole entry): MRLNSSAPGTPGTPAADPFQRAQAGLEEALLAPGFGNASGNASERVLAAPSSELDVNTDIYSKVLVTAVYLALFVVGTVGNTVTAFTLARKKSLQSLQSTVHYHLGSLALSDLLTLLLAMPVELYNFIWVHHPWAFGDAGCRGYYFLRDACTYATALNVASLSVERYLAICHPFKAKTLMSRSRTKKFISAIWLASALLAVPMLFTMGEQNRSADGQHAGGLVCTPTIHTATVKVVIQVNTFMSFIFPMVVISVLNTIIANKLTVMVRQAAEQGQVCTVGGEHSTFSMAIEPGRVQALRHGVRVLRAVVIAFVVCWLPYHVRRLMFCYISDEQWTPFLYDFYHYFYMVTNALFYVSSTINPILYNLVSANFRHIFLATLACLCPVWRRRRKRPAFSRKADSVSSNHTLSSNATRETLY

With `COc1cccc(OC)c1-c1nc(C(=O)N[C@@H](CC(C)C)C(=O)O)cn1-c1ccnc2cc(Cl)ccc12` [ML301], the IC50 in assay [1] is -4.0 Log(IC50).
One may read the EC50 as the concentration at which the effect is half-maximal. Read a low EC50 as an effect from little substance. Regarding `COc1cc2nc(C3CC3)nc(N3CCN(c4ccccc4OC)CC3)c2cc1OC` [ML314], it took 316 nM to reach a half-maximal effect in assay [2] (EC50).

Source of the values: PMC4947017 (ACS chemical biology, 2016).
